Experimental data as given in paper PMC11125126, “Synthesis, Characterisation, and In Vitro Evaluation of Biocompatibility, Antibacterial and Antitumor Activity of Imidazolium Ionic Liquids” (Pharmaceutics, 2024).
Like-named read-outs stand apart in the source and are kept apart here.

Columns and labels:
Pseudomonas fluorescens = assay: MIC/MBC by broth dilution, pure ILs; type: cell-based; conditions: 24 h
From the text: (§1) Within the Di3A (Dipartimento di Agricoltura, Alimentazione e Ambiente, University of Catania, Italy) microbial collection, two Gram-negative strains (Escherichia coli and Pseudomonas fluorescens) and one Gram-positive strain (Listeria monocytogenes) were studied in order to define the potential efficacy of ionic liquids in relation to the different structure of the bacterial cell wall.
(§2) For the pure ILs, the minimal inhibitory concentration (MIC) and minimal bactericidal concentration (MBC) were determined in Nutrient Broth (NB, Oxoid, Basingstoke, UK) medium by broth dilution method, according to the Clinical and Laboratory Standards Institute (CLSI).
All the bacterial strains were individually grown for 24 h at 35 or 27 °C for P. fluorescens, with shaking. After the incubation period, the cells were collected by centrifugation and re-suspended in sterile NB to obtain a stock culture of 10^9 CFU/mL. […]
(§3) Tubes were incubated at 35 or 27 °C in an orbital shaker and evaluated for the viable count of E. coli, P. fluorescens, and L. monocytogenes after 24 h by spread-plating 100 µL of each suspension on Nutrient Agar (NA, Oxoid, Basingstoke, UK) incubated for 24–48 h at 35 or 27 °C.
(§4) In this study, MIC and MBC are expressed in both µg/mL and µM to make the comparison with the literature data easy. Each experiment was performed in triplicate.

Escherichia coli = assay: MIC/MBC by broth dilution, pure ILs; type: cell-based; conditions: 24 h
From the text: as §1, §2
(§5) All the bacterial strains were individually grown for 24 h at 35 or 27 °C for P. fluorescens, with shaking. After the incubation period, the cells were collected by centrifugation and re-suspended in sterile NB to obtain a stock culture of 10^9 CFU/mL.
(§6) Tubes containing 5 mL of NB with decreasing concentrations of ILs (1000, 500, 250, 125, 50, 25, 12.5, 5 and 0 µg/mL) were inoculated with each bacterial stock culture at a final concentration of 10^6 CFU/mL.
as §3, §4

Listeria monocytogenes = assay: MIC/MBC by broth dilution, pure ILs; type: cell-based; conditions: 24 h
From the text: as §1, §2, §5, §6, §3, §4

MCF7 cancer cells = assay: Direct cytotoxicity test of IL powders, Alamar blue assay; type: cell-based, human; conditions: 24 h of incubation
Description: (§7) Cytotoxicity studies on IL powders were carried out using human dermal fibroblast (HDF) cells (Sigma-Aldrich) and a human breast cancer cell line (MCF7). In addition, ILs loaded in PVC polymer substrates were tested for their cytocompatibility and adhesion properties on the HDF. HDF cells were cultured in 75 cm^2 cell culture flask in Dulbecco’s Modified Eagle’s Medium (DMEM) supplemented with 20% Foetal Bovine Serum (FBS), 1% non-essential amino acid (NEAA), antibiotic solution (streptomycin 100 µg/mL and penicillin 100 U/mL, Sigma Aldrich) and 2 mM L-glutamine. MCF7 cells were grown in DMEM with 10% FBS and the same antibiotics as mentioned above. The cells were maintained in a culture at 37 °C, with 5% CO2 and 95% humidity to achieve a confluent layer. Control cells were cultured in a complete medium without any compounds in tissue culture plates. Before biological testing, the samples were sterilised using a UV light for 2 h.
(§8) A direct cytotoxicity test was used to assess the in vitro cytotoxicity of IL powders. IL powders with different alkyl chains were dissolved in DMEM media to obtain solutions at various concentrations (0.5–1–5 and 10 µg/mL) to determine the best formulation.
(§9) After 24 h of incubation of IL solutions (200 µL) with seeded cells under specific environmental conditions (T = 37 °C, HR = 95%, CO2 = 5%), cell viability was tested using the Alamar blue assay (AbD Serotec, Milan, Italy) following the manufacturer’s instructions.
(§10) In summary, each well received a 200 µL aliquot of Alamar Blue^TM diluted 1:10 in phenol red-free medium and was incubated for 4 h at 37 °C, 5% CO2. Following this, 100 µL of the solution was transferred to a 96-well plate for colorimetric analysis. Wells with no cells were included to account for any background interference from the redox indicator. Optical density was immediately measured using a spectrophotometer (Victor X3, Perkin Elmer, Waltham, MA, USA) at 560 and 595 nm wavelengths. The results were presented as a percentage of cell viability compared to that of the control (cells grown on tissue culture plates).
(§11) Here, the antitumor activity and cytotoxicity of the synthetised imidazolium-based ionic liquids have been determined for breast cancer cells (MCF-7) and healthy human fibroblast (HDF) cells. […] Table 5 reports the IC50 values in µg/mL and µM to make their comparison with the literature data easy.

HDF cells = assay: as above; type: cell-based, human; conditions: 24 h of incubation
Description: as §7, §8, §9, §10, §11

[1] = NI = no inhibition at IL maximum concentration used (1000 µM), read-out: MIC
[2] = NI = no inhibition at IL maximum concentration used (1000 µM), read-out: MBC

MIC (Pseudomonas fluorescens; 10^6 CFU/mL) | MIC (Escherichia coli; 10^6 CFU/mL) | MIC (Listeria monocytogenes; 10^6 CFU/mL) | Structure (SMILES) | MIC (Pseudomonas fluorescens; [1]) | MBC (Escherichia coli; 10^6 CFU/mL, read-out: MBC) | MIC (Escherichia coli; 10^6 CFU/mL, read-out: MIC) | MBC (Escherichia coli; [2]) | MIC (Escherichia coli; [1]) | MBC (Listeria monocytogenes; 10^6 CFU/mL, read-out: MBC) | MIC (Listeria monocytogenes; 10^6 CFU/mL, read-out: MIC) | MBC (Listeria monocytogenes; [2]) | MIC (Listeria monocytogenes; [1]) | IC50 (MCF7 cancer cells; Homo sapiens, n = 3) | IC50 (MCF7 cancer cells; Homo sapiens, n = 3, mean ± SD) | IC50 (HDF cells; Homo sapiens, n = 3) | IC50 (HDF cells; Homo sapiens, n = 3, mean ± SD) | MBC (Pseudomonas fluorescens; 10^6 CFU/mL) | MBC (Pseudomonas fluorescens; [2]) | MBC (Escherichia coli; 10^6 CFU/mL) | MBC (Listeria monocytogenes; 10^6 CFU/mL) | also measured
 |  |  | CCCCCCCCC[n+]1ccn(C)c1.F[B-](F)(F)F [C9mimBF4] | > 1000 µM | 296 µg/mL | 296 µg/mL | 1000 µM | 1000 µM | 148 µg/mL | 148 µg/mL | 500 µM | 500 µM | > 14.8 µg/mL | > 50 µM | 17.4 µM | 5.14 ± 0.1 µg/mL |  |  |  |  | 
248.31 µg/mL | 124.16 µg/mL | 124.16 µg/mL | CCCCCCCCCC[n+]1ccn(C)c1.COC(=O)c1cc(C(=O)OC)cc(S(=O)(=O)[O-])c1 [C10mimDMSIP] | 500 µM |  |  | 500 µM | 250 µM |  |  | 1000 µM | 250 µM |  |  |  |  | 496.62 µg/mL | 1000 µM | 248.31 µg/mL | 496.62 µg/mL | IC50 MCF7 (MCF7 cancer cells; n = 3): 5.42 µg/mL; IC50 (MCF7 cancer cells; n = 3, mean ± SD): 10.9 µM; IC50 (HDF cells; n = 3): 11.2 µM; IC50 HDF (HDF cells; n = 3, mean ± SD): 5.56 ± 0.04 µg/mL
 |  |  | CCCCCCCCCCCCn1cc[n+](C)c1.F[B-](F)(F)F [C12mimBF4, 1-dodecyl-3-methylimidazolium tetrafluoroborate] | 50 µM | 84.6 µg/mL | 16.9 µg/mL | 250 µM | 50 µM | 16.9 µg/mL | 8.46 µg/mL | 50 µM | 25 µM | 2.05 µg/mL | 6.06 µM | 12.8 µM | 4.34 ± 0.01 µg/mL |  | 125 µM |  |  | MBC (Pseudomonas fluorescens; 10^6 CFU/mL, read-out: MBC): 42.3 µg/mL; MIC (Pseudomonas fluorescens; 10^6 CFU/mL, read-out: MIC): 16.9 µg/mL
65.58 µg/mL | 26.24 µg/mL | 13.12 µg/mL | CCCCCCCCCCCCn1cc[n+](C)c1.COC(=O)c1cc(C(=O)OC)cc(S(=O)(=O)[O-])c1 [C12mimDMSIP, 1-dodecyl-3-methylimidazolium 1,3-dimethyl-5-sulfoisophthalate] | 125 µM |  |  | 125 µM | 50 µM |  |  | 50 µM | 25 µM |  |  |  |  | 262.33 µg/mL | 500 µM | 65.58 µg/mL | 26.24 µg/mL | IC50 MCF7 (MCF7 cancer cells; n = 3): 4.95 µg/mL; IC50 (MCF7 cancer cells; n = 3, mean ± SD): 9.44 µM; IC50 (HDF cells; n = 3): 10.6 µM; IC50 HDF (HDF cells; n = 3, mean ± SD): 5.56 ± 0.04 µg/mL
 |  |  | CCCCCCCCCCCCCC[n+]1ccn(C)c1.F[B-](F)(F)F [C14mimBF4] | 25 µM | 9.16 µg/mL | 4.58 µg/mL | 25 µM | 12.5 µM | 4.58 µg/mL | 4.58 µg/mL | 12.5 µM | 12.5 µM | 4.41 µg/mL | 12.1 µM | 10.3 µM | 3.78 ± 0.17 µg/mL |  | 125 µM |  |  | MBC (Pseudomonas fluorescens; 10^6 CFU/mL, read-out: MBC): 45.8 µg/mL; MIC (Pseudomonas fluorescens; 10^6 CFU/mL, read-out: MIC): 9.16 µg/mL
